Measured values published in patent US9670261B2 (Sanofi, priority 2012, dated 2017).
Read-outs that look alike come from different tables or passages of the source. *1 amine or outer side, *2 acyl side, *3 side chain or, on linkers, in order; H or OH if unused. Where a SMILES comes first, the peptide text is derived from it. Side-chain parts run from the residue outwards. [ ]: non-standard residue; d: D form. The star is where a group is joined. γGlu = O=C(O)[C@H](CCC(=O)[*:2])N[*:1]; Stearoyl = CCCCCCCCCCCCCCCCCC(=O)*; Palmitoyl = CCCCCCCCCCCCCCCC(=O)*; Aib = CC(C)(N)C(=O)O; βAla = NCCC(=O)O

Experiments:
human GLP-1 receptor = biological target: T1, human GLP-1 receptor (Homo sapiens, UniProt P43220); assay: cAMP response (HTRF) of HEK-293 cells stably expressing human GLP-1 receptor; assay type: cell-based; conditions: read-out: EC50 hGLP-1 R
T1 construct: expressed in transfected cells
T1 sequence (P43220 24-463): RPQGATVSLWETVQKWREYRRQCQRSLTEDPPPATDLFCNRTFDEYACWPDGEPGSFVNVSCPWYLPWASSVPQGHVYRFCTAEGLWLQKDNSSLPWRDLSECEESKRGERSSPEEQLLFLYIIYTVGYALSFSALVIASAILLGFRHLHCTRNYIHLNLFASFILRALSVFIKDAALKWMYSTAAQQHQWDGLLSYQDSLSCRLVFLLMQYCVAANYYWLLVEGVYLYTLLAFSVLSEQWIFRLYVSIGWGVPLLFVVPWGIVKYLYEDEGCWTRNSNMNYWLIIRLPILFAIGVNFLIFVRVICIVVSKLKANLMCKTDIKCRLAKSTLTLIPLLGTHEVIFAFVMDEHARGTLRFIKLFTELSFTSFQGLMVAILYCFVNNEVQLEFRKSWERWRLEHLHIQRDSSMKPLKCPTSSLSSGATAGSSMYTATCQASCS
Protocol: cAMP content of cells was determined using a kit from Cisbio Corp. (cat. no. 62AM4PEC) based on HTRF (Homogenous Time Resolved Fluorescence). For preparation, cells were split into T175 culture flasks and grown overnight to near confluency in medium (DMEM/10% FBS). Medium was then removed and cells washed with PBS lacking calcium and magnesium, followed by proteinase treatment with accutase (Sigma-Aldrich cat. no. A6964). Detached cells were washed and resuspended in assay buffer (1×HBSS; 20 mM HEPES, 0.1% BSA, 2 mM IBMX) and cellular density determined. They were then diluted to 400000 cells/ml and 25 μl-aliquots dispensed into the wells of 96-well plates. For measurement, 25 μl of test compound in assay buffer was added to the wells, followed by incubation for 30 minutes at room temperature.

[1] = Pharmacokinetic testing in mice, s.c.; conditions: mouse, plasma, sc, 1 mg/kg
Protocol: Mice were dosed 1 mg/kg subcutaneously (s.c.). The mice were sacrified and blood samples were collected after 0.25, 0.5, 1, 2, 4, 8, 16 and 24 hours post application. Plasma samples were analyzed after protein precipitation via liquid chromatography mass spectrometry (LC/MS). PK parameters and half-life were calculated using WinonLin Version 5.2.1 (non-compartment model).

SMILES	EC50 (human GLP-1 receptor; Table 7, cAMP formation) [pM]	Cmax [1] [ng/mL]	half-life [1] [h]	EC50 (human GLP-1 receptor; Table 8, functionalized vs non-functionalized position 14) [pM]
CCCCCCCCCCCCCCCCCC(=O)NCCC(=O)NCCC(=O)NCCCC[C@H](NC(=O)[C@H](CCC(N)=O)NC(=O)[C@@H](NC(=O)[C@H](CO)NC(=O)[C@H](CC(C)C)NC(=O)[C@H](CC(=O)O)NC(=O)[C@H](CO)NC(=O)[C@@H](NC(=O)[C@H](Cc1ccccc1)NC(=O)[C@@H](NC(=O)CNC(=O)[C@H](CCC(=O)O)NC(=O)C(C)(C)NC(=O)[C@@H](N)Cc1ccc(O)cc1)[C@@H](C)O)[C@@H](C)O)[C@@H](C)CC)C(=O)N[C@@H](CCC(=O)O)C(=O)N[C@@H](CCCCN)C(=O)N[C@@H](CCCNC(=N)N)C(=O)N[C@@H](C)C(=O)N[C@@H](C)C(=O)NC(C)(C)C(=O)N[C@@H](CCC(=O)O)C(=O)N[C@@H](Cc1ccccc1)C(=O)N[C@H](C(=O)N[C@@H](CCC(=O)O)C(=O)N[C@@H](Cc1c[nH]c2ccccc12)C(=O)N[C@@H](CC(C)C)C(=O)N[C@@H](CCCCN)C(=O)N[C@@H](CC(N)=O)C(=O)N[C@H](C(=O)NCC(=O)N1CCC[C@H]1C(=O)N[C@@H](CO)C(=O)N[C@@H](CO)C(=O)NCC(=O)N[C@@H](C)C(=O)N1CCC[C@H]1C(=O)N1CCC[C@H]1C(=O)N1CCC[C@H]1C(=O)N[C@@H](CO)C(N)=O)[C@@H](C)O)[C@@H](C)CC [SEQ ID NO: 18, Y-Aib-E-G-T-F-T-S-D-L-S-I-Q-K(βA-βA-x70)-E-K-R-A-A-Aib-E-F-I-E-W-L-K-N-T-G-P-S-S-G-A-P-P-P-S-NH2] (H-Y[Aib]EGTFTSDLSIQK([βAla-βAla-Stearoyl])EKRAA[Aib]EFIEWLKNTGPSSGAPPPS-NH2)	7.6	5750	2.1	
CCCCCCCCCCCCCCCC(=O)N[C@@H](CCC(=O)NCCCC[C@H](NC(=O)[C@H](CCC(N)=O)NC(=O)[C@@H](NC(=O)[C@H](CO)NC(=O)[C@H](CC(C)C)NC(=O)[C@H](CC(=O)O)NC(=O)[C@H](CO)NC(=O)[C@@H](NC(=O)[C@H](Cc1ccccc1)NC(=O)[C@@H](NC(=O)CNC(=O)[C@H](CCC(=O)O)NC(=O)C(C)(C)NC(=O)[C@@H](N)Cc1ccc(O)cc1)[C@@H](C)O)[C@@H](C)O)[C@@H](C)CC)C(=O)N[C@@H](CCC(=O)O)C(=O)N[C@@H](CCCCN)C(=O)N[C@@H](CCCNC(=N)N)C(=O)N[C@@H](C)C(=O)N[C@@H](C)C(=O)N[C@@H](CCC(N)=O)C(=O)N[C@@H](CCC(=O)O)C(=O)N[C@@H](Cc1ccccc1)C(=O)N[C@H](C(=O)N[C@@H](CCC(=O)O)C(=O)N[C@@H](Cc1c[nH]c2ccccc12)C(=O)N[C@@H](CC(C)C)C(=O)N[C@@H](CCCCN)C(=O)N[C@@H](CC(N)=O)C(=O)N[C@H](C(=O)NCC(=O)N1CCC[C@H]1C(=O)N[C@@H](CO)C(=O)N[C@@H](CO)C(=O)NCC(=O)N[C@@H](C)C(=O)N1CCC[C@H]1C(=O)N1CCC[C@H]1C(=O)N1CCC[C@H]1C(=O)N[C@@H](CO)C(N)=O)[C@@H](C)O)[C@@H](C)CC)C(=O)O [SEQ ID NO: 26, Y-Aib-E-G-T-F-T-S-D-L-S-I-Q-K(γE-x53)-EKRAAQEFIEWLKNTGPSSGAPPPS-NH2] (H-Y[Aib]EGTFTSDLSIQK([γGlu-Palmitoyl])EKRAAQEFIEWLKNTGPSSGAPPPS-NH2)	4.9	3120	3.7	
CCCCCCCCCCCCCCCC(=O)N[C@@H](CCC(=O)NCCCC[C@H](NC(=O)[C@H](CCC(N)=O)NC(=O)[C@@H](NC(=O)[C@H](CO)NC(=O)[C@H](CC(C)C)NC(=O)[C@H](CC(=O)O)NC(=O)[C@H](CO)NC(=O)[C@@H](NC(=O)[C@H](Cc1ccccc1)NC(=O)[C@@H](NC(=O)CNC(=O)[C@H](CCC(N)=O)NC(=O)C(C)(C)NC(=O)[C@@H](N)Cc1ccc(O)cc1)[C@@H](C)O)[C@@H](C)O)[C@@H](C)CC)C(=O)N[C@@H](CC(=O)O)C(=O)N[C@@H](CCCCN)C(=O)N[C@@H](CCCNC(=N)N)C(=O)N[C@@H](C)C(=O)N[C@@H](C)C(=O)N[C@@H](CCC(N)=O)C(=O)N[C@@H](CC(=O)O)C(=O)N[C@@H](Cc1ccccc1)C(=O)N[C@H](C(=O)N[C@@H](CCC(=O)O)C(=O)N[C@@H](Cc1c[nH]c2ccccc12)C(=O)N[C@@H](CC(C)C)C(=O)N[C@@H](CCCCN)C(=O)N[C@@H](C)C(=O)NCC(=O)NCC(=O)N1CCC[C@H]1C(=O)N[C@@H](CO)C(=O)N[C@@H](CO)C(=O)NCC(=O)N[C@@H](C)C(=O)N1CCC[C@H]1C(=O)N1CCC[C@H]1C(=O)N1CCC[C@H]1C(=O)N[C@@H](CO)C(N)=O)[C@@H](C)CC)C(=O)O [SEQ ID NO: 28, Y-Aib-Q-G-T-F-T-S-D-L-S-I-Q-K(γE-x53)-DKRAAQDFIEWLKAGGPSSGAPPPS-NH2] (H-Y[Aib]QGTFTSDLSIQK([γGlu-Palmitoyl])DKRAAQDFIEWLKAGGPSSGAPPPS-NH2)	3.2			
CCCCCCCCCCCCCCCC(=O)N[C@@H](CCC(=O)NCCCC[C@H](NC(=O)[C@H](CCC(N)=O)NC(=O)[C@@H](NC(=O)[C@H](CO)NC(=O)[C@H](CC(C)C)NC(=O)[C@H](CC(=O)O)NC(=O)[C@H](CO)NC(=O)[C@@H](NC(=O)[C@H](Cc1ccccc1)NC(=O)[C@@H](NC(=O)CNC(=O)[C@H](CCC(N)=O)NC(=O)C(C)(C)NC(=O)[C@@H](N)Cc1ccc(O)cc1)[C@@H](C)O)[C@@H](C)O)[C@@H](C)CC)C(=O)N[C@@H](CC(=O)O)C(=O)N[C@@H](CO)C(=O)N[C@@H](CCCNC(=N)N)C(=O)N[C@@H](C)C(=O)N[C@@H](C)C(=O)N[C@@H](CCC(N)=O)C(=O)N[C@@H](CCC(=O)O)C(=O)N[C@@H](Cc1ccccc1)C(=O)N[C@H](C(=O)N[C@@H](CCC(=O)O)C(=O)N[C@@H](Cc1c[nH]c2ccccc12)C(=O)N[C@@H](CC(C)C)C(=O)N[C@@H](CCCCN)C(=O)N[C@@H](C)C(=O)NCC(=O)NCC(=O)N1CCC[C@H]1C(=O)N[C@@H](CO)C(=O)N[C@@H](CO)C(=O)NCC(=O)N[C@@H](C)C(=O)N1CCC[C@H]1C(=O)N1CCC[C@H]1C(=O)N1CCC[C@H]1C(=O)N[C@@H](CO)C(N)=O)[C@@H](C)CC)C(=O)O [SEQ ID NO: 29, Y-Aib-Q-G-T-F-T-S-D-L-S-I-Q-K(γE-x53)-DSRAAQEFIEWLKAGGPSSGAPPPS-NH2] (H-Y[Aib]QGTFTSDLSIQK([γGlu-Palmitoyl])DSRAAQEFIEWLKAGGPSSGAPPPS-NH2)	7			
CCCCCCCCCCCCCCCC(=O)N[C@@H](CCC(=O)NCCCC[C@H](NC(=O)[C@H](CCC(N)=O)NC(=O)[C@@H](NC(=O)[C@H](CO)NC(=O)[C@H](CC(C)C)NC(=O)[C@H](CC(=O)O)NC(=O)[C@H](CO)NC(=O)[C@@H](NC(=O)[C@H](Cc1ccccc1)NC(=O)[C@@H](NC(=O)CNC(=O)[C@H](CCC(=O)O)NC(=O)C(C)(C)NC(=O)[C@@H](N)Cc1ccc(O)cc1)[C@@H](C)O)[C@@H](C)O)[C@@H](C)CC)C(=O)N[C@@H](CCC(=O)O)C(=O)N[C@@H](CO)C(=O)N[C@@H](CCCNC(=N)N)C(=O)N[C@@H](C)C(=O)N[C@@H](C)C(=O)N[C@@H](CCC(N)=O)C(=O)N[C@@H](CCC(=O)O)C(=O)N[C@@H](Cc1ccccc1)C(=O)N[C@H](C(=O)N[C@@H](CCC(=O)O)C(=O)N[C@@H](Cc1c[nH]c2ccccc12)C(=O)N[C@@H](CC(C)C)C(=O)N[C@@H](CCCCN)C(=O)N[C@@H](C)C(=O)NCC(=O)NCC(=O)N1CCC[C@H]1C(=O)N[C@@H](CO)C(=O)N[C@@H](CO)C(=O)NCC(=O)N[C@@H](C)C(=O)N1CCC[C@H]1C(=O)N1CCC[C@H]1C(=O)N1CCC[C@H]1C(=O)N[C@@H](CO)C(N)=O)[C@@H](C)CC)C(=O)O [SEQ ID NO: 39, Y-Aib-E-G-T-F-T-S-D-L-S-I-Q-K(γE-x53)-ESRAAQEFIEWLKAGGPSSGAPPPS-NH2] (H-Y[Aib]EGTFTSDLSIQK([γGlu-Palmitoyl])ESRAAQEFIEWLKAGGPSSGAPPPS-NH2)	4.3			
CC[C@H](C)[C@H](NC(=O)[C@H](Cc1ccccc1)NC(=O)[C@H](CC(=O)O)NC(=O)[C@H](CCC(N)=O)NC(=O)[C@H](C)NC(=O)[C@H](C)NC(=O)[C@H](CCCNC(=N)N)NC(=O)[C@H](CO)NC(=O)[C@H](CCC(=O)O)NC(=O)[C@H](CC(C)C)NC(=O)[C@H](CCC(N)=O)NC(=O)[C@@H](NC(=O)[C@H](CO)NC(=O)[C@H](CC(C)C)NC(=O)[C@H](CC(=O)O)NC(=O)[C@H](CO)NC(=O)[C@@H](NC(=O)[C@H](Cc1ccccc1)NC(=O)[C@@H](NC(=O)CNC(=O)[C@H](CCC(N)=O)NC(=O)C(C)(C)NC(=O)[C@@H](N)Cc1ccc(O)cc1)[C@@H](C)O)[C@@H](C)O)[C@@H](C)CC)C(=O)N[C@@H](CCC(=O)O)C(=O)N[C@@H](Cc1c[nH]c2ccccc12)C(=O)N[C@@H](CC(C)C)C(=O)N[C@@H](CCCCN)C(=O)N[C@@H](C)C(=O)NCC(=O)NCC(=O)N1CCC[C@H]1C(=O)N[C@@H](CO)C(=O)N[C@@H](CO)C(=O)NCC(=O)N[C@@H](C)C(=O)N1CCC[C@H]1C(=O)N1CCC[C@H]1C(=O)N1CCC[C@H]1C(=O)N[C@@H](CO)C(N)=O [SEQ ID NO: 40, Y-Aib-QGTFTSDLSIQLESRAAQDFIEWLKAGGPSSGAPPPS-NH2, reference compound] (H-Y[Aib]QGTFTSDLSIQLESRAAQDFIEWLKAGGPSSGAPPPS-NH2; N-terminus assumed)				3.2
